Reference: patent US20240299483A1, “TARGETS AND BIOMARKERS FOR TUMOR MICROENVIRONMENTS” (The Trustees of Indiana University, priority 2023, published 2024)

Tests used:
Ly6G^+ cells = test: Reactive oxygen species (ROS) measurement in Ly6G+ cells by flow cytometry; format: cell-based, mice; conditions: CPI-613 treatment; versus Lal+/+ Ly6G+ cells
Protocol: (§1) Isolation of Bone Marrow Lymphocyte Antigen 6 Member G—Positive (Ly6G^+) Cell Ly6G^+ cells were isolated by magnetic bead sorting. For CPI-613 (also known as Devimistat; a pyruvate dehydrogenase inhibitor) treatment, freshly isolated Ly6G^+ cells were pre-treated with DMSO or 10 μM CPI-613 at 37° C. for 1 hour, and then co-cultured with Cluster of Differentiation 4 Protein-positive […] (CD4^+ T cells) or co-injected with B16 melanoma cells for further analysis.
Reactive Oxygen Species (ROS) Measurement The ROS level in Ly6G^+ cells was measured by flow cytometry as previously described. Ly6G^+ cells from Lal^+/+ and Lal^−/− mice with or without CPI-613 pre-treatment were collected and stained with APC eFluor 780-conjugated anti-Ly6G antibody, FITC-conjugated anti-CD11b antibody and 2 μmol/L 2′, 7′-dichlorofluorescein diacetate (acquired from Invitrogen, Carlsbad, CA) at 37° C. for 30 minutes. After PBS washing, the ROS level in Ly6G^+ cells was analyzed using an LSRII machine.
Small Interfering RNA Transfection Before transfection, Ly6G^+ cells were seeded into 96-well plates at a density of 1×10^6 cells/well. […]

PD-L1 = PD-L1 expression in Ly6G+ cells after in vivo CPI-613 treatment, flow cytometry; set-up: species or system mice; conditions: 5 mg/kg on days 0, 2, 4, 7; day 8; PD-L1+ cells in Ly6G+CD11c+ cells
Protocol: FIG. 3J measures PD-L1^+ cells of Ly6G^+ CD11c^+ cells isolated from Lal^+/+ and Lal^−/− mice. Mice received 5 mg/kg CPI-613 on days 0, 2, 4, and 7. On day 8, the percentage of PD-L1^+ cells in Ly6G^+ CD11c^+ cells was measured by flow cytometry analysis.
(§2) Flow Cytometry Analysis For analyses of percentages of CD11b^+Ly6G^+ (integrin alpha M-positive/Ly6G positive) and Ly6G^+Ly6C^+ (Ly6G positive/lymphocyte antigen 6 C1-positive) cells, single cells harvested from the bone marrow of Lal^+/+ and Lal^−/− mice were stained with APC eFluor 780-conjugated, dye, anti-Ly6G antibody (1A8-Ly6g, cat #47-9668-82), FITC (fluorescein isothiocyanate)-conjugated anti-CD11b antibody (M1/70, cat #11-0112-82), and PE (phycocrythrin)-conjugated anti-Ly6C antibody (HK1.4, cat #12-5932-82) at 4° C. for 15 minutes. All antibodies were acquired from eBioscience, San Diego, CA. For analysis of PD-L1 expression in Ly6G^+ cells, cells were stained with APC eFluor 780-conjugated anti-Ly6G antibody, PE-conjugated anti-CD11c (integrin alpha X) antibody (N418, cat #12-0114-82) (acquired from eBioscience), and PE-Cy7 (cyanine 7)-conjugated anti-PD-L1 antibody (10F.9G2, cat #124314) (acquired from Biolegend) at 4° C. for 15 minutes. Cells were washed with PBS, then were ready for flow cytometry analysis.

[1] = test system: Lewis lung carcinoma (LLC) cells; test: In vitro co-culture of Ly6G+ cells and LLC cells; format: cell-based, murine; conditions: Ly6G+ cells pre-treated 10 μM; co-culture 72 hours
Protocol: (§3) In Vitro Co-Culture of Ly6G^+ and Tumor Cells B16 melanoma or LLC cells were harvested, resuspended, and adjusted to density at 5×10^4 cells/mL. Isolated Ly6G^+ cells with or without 10 μM CPI-613 pre-treatment were prepared at the cell density of 5×10^6 cells/mL. One hundred microliter of Ly6G^+ cells and 100 μL of B16 melanoma/LLC cells were mixed, and seeded into a well of 96-well plates in DMEM supplemented with 10% FBS. Seventy-two hours later, unattached Ly6G^+ cells were removed by washing with PBS, and the number of attached B16 melanoma/LLC cells was counted. Morphologically, Ly6G^+ cells are much smaller than B16 melanoma/LLC cells for exclusion.
(§4) Small Interfering RNA Transfection Before transfection, Ly6G^+ cells were seeded into 96-well plates at a density of 1×10^6 cells/well. For small interfering RNA (siRNA)-mediated gene knockdown, 50 nmol/L of PDH siRNA (containing a mixture of three independent siRNAs targeting different regions of PDH) or control siRNA was transfected into Ly6G^+ cells with DharmaFECT Transfection Reagent I, chemical formulation for transfection, (acquired from Dharmacon) according to the manufacturer's protocol. After 24 hours of transfection, cells were harvested for further analysis.

B16 melanoma cells [2] = test: Subcutaneous co-injection of pre-treated Ly6G+ cells with B16 melanoma cells, tumor growth; format: in vivo; conditions: Ly6G+ cells pre-treated 10 μM 1 hour, co-injected with B16 melanoma cells into Lal+/+ recipient mice; tumor size at 10 days
Protocol: Subcutaneous Injection of Tumor Cells into Lal^+/+ Mice To study the effect of Ly6G^+ cells on tumor growth, isolated 1×10^6 Ly6G^+ cells from Lal^+/+ or Lal^−/− mice were pre-treated with DMSO or 10 μM CPI-613 for 1 hour, mixed with 2×10^5 B16 melanoma cells, and the cell mixture was injected subcutaneously at the flank region of Lal^+/+ recipient mice. The tumor growth was monitored twice a weck. The tumor volume (mm^3) was estimated by measuring the maximal length (L) and width (W) of a tumor and calculated using the formula: (length×width^2)/2. For tumor-bearing myeloid-derived suppressor cells (MDSCs) experiments, Lal^+/+ or Lal^−/− mice were injected with 1×10^6 B16 melanoma cells at flank sites on two sides. Fourteen days later, the mice were sacrificed. Tumor tissues were harvested, digested for single cell preparation, and stained for flow cytometry analysis of the CD11b^+Ly6G^+ cells.

CD11b^+Ly6G^+ cells = test: CD11b+Ly6G+ population in bone marrow after CPI-613 injection, flow cytometry; format: in vivo; conditions: Lal−/− mice, 5 mg/kg on days 0, 2, 4, 7; measured day 8; DMSO control
Protocol: Mice received 5 mg/kg CPI-613 (PDH inhibitor) on days 0, 2, 4, and 7. On day 8, the CD11b^+Ly6G^+ population in the bone marrow was determined by flow cytometry. DMSO (dimethyl sulfoxide) was used as a control.
as §2

CD4^+ T cells = test: T cell proliferation assay (CFSE-labeled CD4+ T cells co-cultured with pre-treated Ly6G+ cells); format: cell-based, mice; conditions: Ly6G+ cells pre-treated 10 μM, 1 hour; co-culture 4 days; DMSO control
Protocol: as §1
T cell Proliferation Assay CD4^+ T cells were isolated from the spleen and labeled with carboxyfluorescein succinimidyl ester (CFSE) as previously described. CFSE-labeled CD4^+ T cells were co-cultured with Ly6G^+ cells in 96-well plates pre-coated with anti-CD3 mAb (2 μg/mL) (145-2C11, cat #553057) and anti-CD28 mAb (5 μg/mL) (37.51, cat #553295) (acquired from BD Biosciences) at 37° C., 5% CO2, for 4 days. The ratio of Ly6G^+ cells to CD4^+ T cells was 1:5. Proliferation of CD4^+ T cells was evaluated as CFSE dilution by flow cytometry analysis.

B16 melanoma cells [3] = test: In vitro co-culture of Ly6G+ cells and B16 melanoma cells; format: cell-based, murine; conditions: Ly6G+ cells pre-treated 10 μM; co-culture 72 hours
Protocol: as §3, §4

[4] = test system: lysosomal acid lipase (LAL); test: Human leucocytes incubated with LAL inhibitor, MDSC subsets by flow cytometry; format: cell-based; conditions: leucocytes from healthy subjects, 10 μM, 24 hours
Protocol: Human leucocytes from healthy individuals were incubated with 10 μM Lalistat2, an LAL inhibitor (L) or DMSO (S) for 24 hours; control group (C) were not treated. After 24 hours, cells were analyzed by flow cytometry.
Human Blood Samples The blood donor characteristics of the human blood samples of normal subjects and non-small-cell lung cancer (NSCLC, at stage III-IV) patients is described in TABLE 8. NSCLC patients were selected by screening with Programmed death-ligand 1 (PD-L1) Tumor Proportion Score (TPS)≥10%. Both normal subjects and NSCLC patients include male and female, White and African American. To inhibit lysosomal acid lipase (LAL) activity, human blood cells from healthy participants had the red blood cells (RBCs) removed with lysis buffer acquired from Biolegend (San Diego, CA); washed with phosphate buffered saline (PBS) by centrifugation at 240×g for 5 minutes at room temperature; and then incubated with 10 μM LAL inhibitor Lalistat2, acquired from Cayman, Ann Arbor, MI) for 24 hours. As a control, human blood cells were incubated with dimethyl sulfoxide (DMSO).
For flow cytometry analysis of human blood samples, human blood cells had the RBCs removed, washed with PBS, and stained with APC-eFluor 780-conjugated anti-CD11b antibody (ICRF44, cat #47-0118-42), FITC-conjugated anti-CD13 (aminopeptidase N) antibody (WM15, cat #11-0138-42), PE-conjugated anti-CD14 antibody (61D3, cat #12-0149-42), APC-conjugated anti-CD15 (Lewis X) antibody (MMA, cat #17-0158-42), PE-conjugated anti-CD33 antibody (HIM3-4, cat #12-0339-42), PE-Cy7-conjugated anti-HLA-DR (major histocompatibility complex, class II) antibody (L243, cat #25-9952-42) (all acquired from eBioscience) at 4° C. for 15 minutes. Cells were then washed with PBS, fixed with 1% paraformaldehyde, and prepared for flow cytometry analysis. To analyze LAL levels, cells were further fixed and permeabilized using BD Cytofix/Cytoperm Fixation/Permeabilization Kit, cell fixation and permeabilization kit, and incubated with non-fluorescence conjugated anti-LAL antibody at 4° C. overnight. […]

induction of CD11b+CD15+HLA-DR− MDSC subset [4]	percentage of CD11b+CD13+HLA-DR− MDSC subset [4]	percentage of CD11b+CD14+HLA-DR− MDSC subset [4]	SMILES	overproduction of ROS in Lal−/− CD11b+Ly6G+ cells (Ly6G^+ cells)	PD-L1 expression in Lal−/− Ly6G+ cells (PD-L1)	capability of Lal−/− Ly6G+ cells in promoting tumor cell proliferation, LLC [1]	capability of Lal−/− Ly6G+ cells in stimulating tumor growth (B16 melanoma cells [2])	Lal−/− CD11b+Ly6G+ cells (percentage in bone marrow) (CD11b^+Ly6G^+ cells)	Lal−/− Ly6G+ cells' suppressive activity on T cell proliferation (CD4^+ T cells)	capability of Lal−/− Ly6G+ cells in promoting tumor cell proliferation, B16 melanoma (B16 melanoma cells [3])
–	–	–	O=C(O)CCCCC(CCSCc1ccccc1)SCc1ccccc1 (stereo not shown) [CPI-613]	significantly reversed	effectively reduced	reduced capabilities	reduced capabilities	reduced	reversed	reduced capabilities
did not reach statistical significance	increased	increased	O=C(Oc1nsnc1N1CCCCC1)N1CCCCC1 [Lalistat2]	–	–	–	–	–	–	–
